Laboratory results from patent US8999983B2, “Modulators of Hec1 activity and methods therefor” (Taivex Therapeutics Corporation, priority 2011, dated 2015).

Experiments:
Hela = experiment: Antiproliferation assay (MTS), HeLa cells; assay type: cell-based; conditions: Homo sapiens, 96 h, Table 1, read-out: Antiproliferative IC50 Hela
Procedure, shortened: (§1)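 Cells seeded after overnight attachment were treated in triplicate for 96 h at 37 °C, 5% CO2, final DMSO below 1%. Viability read by MTS absorbance; concentration-response curves fitted by linear regression against DMSO controls.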

MDA-MB-231 = experiment: Antiproliferation assay (MTS), MDA-MB-231 cells; assay type: cell-based; conditions: Homo sapiens, MDA-MB-231, 96 h, read-out: Antiproliferative IC50 MDA-MB-231, Table 1
Procedure, shortened: as §1

Nek2 protein = experiment: Immunoblot of Nek2 protein level in K562 cells; assay type: cell-based; conditions: 1 μM, up to 24 hrs
Experimental: Immunoblot Analysis: For immunoblotting experiments, cells were plated in a 6-well culture plate and cultured overnight. Cells were incubated with the test compounds for the indicated time and whole cell lysate was harvested by adding 1×SDS-PAGE Sample Buffer (62.5 mM Tris-HCl (pH 6.8 at 25° C.), 2% w/v SDS, 10% glycerol, 50 mM DTT, and 0.01% w/v bromophenol blue or phenol red). Proteins were separated by SDS-PAGE electrophoresis and transferred to PVDF membrane. Protein expression was immunoblotted using various primary antibodies and detected using Immobilon Western Chemiluminescent HRP Substrate (Millipore, Billerica Mass. 01821 USA). Antibodies used include anti-Cleaved Caspase3, (Rabbit, Cell Signaling Technology, Danvers Mass. 01923 USA); anti-PARP (Rabbit, Cell Signaling Technology, Danvers Mass. 01923 USA); anti-MCL-1 (mouse, BD Biosciences, San Jose Calif. 95131 USA); anti-XIAP (rabbit, Cell Signaling Technology, Danvers Mass. 01923 USA); anti-Bcl-2 (mouse, Santa Cruz Biotechnology, Santa Cruz Calif. 95060); anti-Cyclin BI (mouse, BD Biosciences, San Jose Calif. 95131 USA); anti-Cyclin D1 (mouse, Santa Cruz Biotechnology, Santa Cruz Calif. 95060); Anti-Nek2 (mouse, BD Biosciences, San Jose Calif. 95131 USA); Anti-HEC1, (rabbit, GeneTex, Inc., Irvine Calif. 92606 USA); and anti-actin (mouse, Millipore, Billerica Mass. 01821 USA). […]

HeLa cell = experiment: Immunostaining and microscopy, metaphase chromosomal misalignment; assay type: cell-based; conditions: compared to control (DMSO)
Experimental: Immunostaining and Microscopy: Cells were grown on polylysine-coated coverslips. Cells were gently washed with BRB80 buffer (80 mM piperazine-N,N′-bis(2-ethanesulfonic acid) (PIPES) pH 6.8, 5 mM EGTA, 1 mM MgCl2) before fixation with cold 100% methanol or 4% paraformaldehyde in BRB80 or phosphate-buffered saline (PBS). Following permeabilization with 0.4% Triton X-100, cells were blocked with 2% bovine serum albumin (BSA) in PBS and then incubated with anti-α-Tubulin antibodies (mouse, FITC Conjugate; Sigma Aldrich, St. Louis Mo. USA) diluted in 2% BSA in PBS. DAPI (4′,6′-diamidino-2-phenylindole) staining was applied after secondary antibody incubation, and cells were mounted on cover slides with Prolong gold antifade reagent (Life Technologies, Carlsbad Calif. USA 92008). Images were captured with a Zeiss Axioplan 2 microscope equipped with a deconvolution module or with a Zeiss LSM-510 META laser scanning confocal microscope (Carl Zeiss Microscopy, Thomwood N.Y. 10594 USA).
After fixation, cells are stained with anti-tubulin antibody and DAPI to stain for microtubules and DNA, respectively, and imaged. […] Fluorescent images were taken of the cells and the percentage of cells with metaphase misalignment were counted and recorded.

[1] = tested on: caspase-3, PARP, Mcl-1 and XIAP; experiment: Immunoblot of apoptotic pathway proteins; assay type: cell-based; conditions: 1 μM, 24 or 48 hours
Experimental: Immunoblot Analysis: For immunoblotting experiments, cells were plated in a 6-well culture plate and cultured overnight. Cells were incubated with the test compounds for the indicated time and whole cell lysate was harvested by adding 1×SDS-PAGE Sample Buffer (62.5 mM Tris-HCl (pH 6.8 at 25° C.), 2% w/v SDS, 10% glycerol, 50 mM DTT, and 0.01% w/v bromophenol blue or phenol red). Proteins were separated by SDS-PAGE electrophoresis and transferred to PVDF membrane. Protein expression was immunoblotted using various primary antibodies and detected using Immobilon Western Chemiluminescent HRP Substrate (Millipore, Billerica Mass. 01821 USA). Antibodies used include anti-Cleaved Caspase3, (Rabbit, Cell Signaling Technology, Danvers Mass. 01923 USA); anti-PARP (Rabbit, Cell Signaling Technology, Danvers Mass. 01923 USA); anti-MCL-1 (mouse, BD Biosciences, San Jose Calif. 95131 USA); anti-XIAP (rabbit, Cell Signaling Technology, Danvers Mass. 01923 USA); anti-Bcl-2 (mouse, Santa Cruz Biotechnology, Santa Cruz Calif. 95060); anti-Cyclin BI (mouse, BD Biosciences, San Jose Calif. 95131 USA); anti-Cyclin D1 (mouse, Santa Cruz Biotechnology, Santa Cruz Calif. 95060); Anti-Nek2 (mouse, BD Biosciences, San Jose Calif. 95131 USA); Anti-HEC1, (rabbit, GeneTex, Inc., Irvine Calif. 92606 USA); and anti-actin (mouse, Millipore, Billerica Mass. 01821 USA).
100 nM Taxol was used as a positive control drug for apoptosis.

MDA-MB-231 xenograft = experiment: Mouse xenograft study, MDA-MB-231 breast cancer; assay type: in vivo; conditions: MDA-MB-231 breast cancer xenograft, nude mice
Caco-2 cell monolayers = experiment: Caco-2 cell permeability; assay type: in vitro ADME; conditions: 2 hour
Experimental: Here, Caco-2 cell line (cat. HTB-37TM) was purchased from the ATCC. Cells were cultivated in T-75 flasks in a cell culture incubator set at 37° C., 5% CO2, 95% relative humidity. Cells were allowed to grow to reach 80-90% confluence before seeding. […] The cells were grown in culture medium consisting of Dulbecco's modified Eagle's medium supplemented with 10% fetal bovine serum, 100 U/mL penicillin and 100 μg/mL streptomycin. The culture medium was replaced every 2 days and the cells were maintained at 37° C., 95% relative humidity and 5% CO2.
For a quality integrity control of the monolayers of seeded cells, the Lucifer yellow (LY) transport experiment was performed to evaluate monolayer integrity. As for a quality control of each filter, the transepithelial electrical resistance (TEER) was measured before the start of and at the end of transport experiments. Physiologically and morphologically well developed Caco-2 cell monolayers with TEER values greater than 400 Ωcm^2 were used for the studies.
The solution volumes in apical and basolateral chambers were set to 0.4 and 0.6 ml respectively. Samples were taken from both the apical and basolateral compartment at the end of the 2 hour incubation at 37° C. […] The excitation and emission wavelengths were 490 nm and 530 nm, respectively.

hERG potassium channels = biological target: T1, hERG potassium channels (Homo sapiens, UniProt Q12809); experiment: [3H]Astemizole competitive binding assay, hERG; conditions: [3H]-astemizole displacement, hERG membrane protein
T1 construct: purchased PerkinElmer
Experimental: Here, [3H] Astemizole competitive binding assays were performed to determine the ability of compounds to displace the known radioligand [3H]-astemizole from the hERG potassium channels, following standard protocol with minor modifications. In brief, assays were performed in 200 μl of binding buffer (50 mM HEPES, pH 7.4, 60 mM KCl, and 0.1% BSA) containing 1.5 nM of [3H]astemizole, 3 μg/well of hERG membrane protein (PerkinElmer), and TAI-1 (in 1% DMSO final concentration) at 27° C. for 60 min. Nonspecific binding (NSB) was determined in the presence of 10 μM astemizole. […] Binding was terminated by rapid filtration onto polyethyleneimine-presoaked, buffer-washed UniFilter-96, GF/C (Perkin Elmer) using a vacuum manifold (Porvair Sciences). Captured radiolabel signal was detected using TopCount NXT (Perkin Elmer). […] All results are derived from two independent experiments.

T1 sequence (Q12809 whole entry): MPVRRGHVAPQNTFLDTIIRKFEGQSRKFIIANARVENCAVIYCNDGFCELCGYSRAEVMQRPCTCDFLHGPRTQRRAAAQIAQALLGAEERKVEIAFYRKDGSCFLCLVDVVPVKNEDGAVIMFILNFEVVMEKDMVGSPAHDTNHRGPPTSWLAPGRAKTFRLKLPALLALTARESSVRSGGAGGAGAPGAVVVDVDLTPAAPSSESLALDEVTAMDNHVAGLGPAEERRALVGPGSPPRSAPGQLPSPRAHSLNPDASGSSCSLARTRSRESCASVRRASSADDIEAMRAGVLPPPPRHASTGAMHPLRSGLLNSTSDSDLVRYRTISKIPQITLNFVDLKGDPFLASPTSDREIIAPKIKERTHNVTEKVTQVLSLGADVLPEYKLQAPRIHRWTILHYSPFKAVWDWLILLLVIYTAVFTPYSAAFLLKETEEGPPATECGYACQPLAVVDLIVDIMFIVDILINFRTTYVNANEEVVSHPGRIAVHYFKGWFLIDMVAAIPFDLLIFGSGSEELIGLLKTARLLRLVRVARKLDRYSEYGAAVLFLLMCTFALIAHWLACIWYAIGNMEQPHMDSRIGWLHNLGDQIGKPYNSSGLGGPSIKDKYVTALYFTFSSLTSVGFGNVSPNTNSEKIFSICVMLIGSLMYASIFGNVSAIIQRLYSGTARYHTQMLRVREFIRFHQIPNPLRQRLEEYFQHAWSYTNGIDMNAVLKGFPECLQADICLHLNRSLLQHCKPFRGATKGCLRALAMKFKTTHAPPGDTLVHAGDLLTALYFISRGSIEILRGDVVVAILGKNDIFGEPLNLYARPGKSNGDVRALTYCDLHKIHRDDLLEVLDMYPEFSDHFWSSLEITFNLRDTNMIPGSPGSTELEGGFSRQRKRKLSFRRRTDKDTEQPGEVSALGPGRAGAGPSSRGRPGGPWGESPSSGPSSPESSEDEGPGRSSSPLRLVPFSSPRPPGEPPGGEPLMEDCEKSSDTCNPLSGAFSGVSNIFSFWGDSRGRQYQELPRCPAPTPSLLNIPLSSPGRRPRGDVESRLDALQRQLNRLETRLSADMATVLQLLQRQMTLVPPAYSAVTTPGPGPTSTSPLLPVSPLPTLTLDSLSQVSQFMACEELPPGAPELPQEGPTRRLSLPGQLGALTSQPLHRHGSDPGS

IC50 (Hela): 21.1 nM | IC50 (MDA-MB-231): 35.1 nM | Caco-2 permeability (Caco-2 cell monolayers; 10 μM, both directions): moderate Caco-2 permeability
SMILES: COCCOc1cnc(Sc2cc(C)c(-c3csc(NC(=O)c4ccncc4)n3)c(C)c2)cn1 [Compound 27, N-(4-{4-(5-(2-methoxyethoxy)pyrazin-2-ylthio)-2,6-dimethylphenyl}thiazol-2-yl)isonicotinamide]
Nek2 protein level (Nek2 protein): induced a reduction of Nek2 protein levels | number of cells with metaphase misalignment (HeLa cell): time-dependent increase in the number of cells with metaphase misalignment | levels of apoptotic (caspase-3, PARP) and anti-apoptotic (Mcl-1, XIAP) proteins [1]: cleavage of the apoptotic proteins accompanied by down-regulation of the anti-apoptotic proteins | xenograft tumor outgrowth (MDA-MB-231 xenograft): inhibition of xenograft tumor outgrowth | active efflux (Caco-2 cell monolayers; Caco-2, 10 μM): no indication of significant active efflux | IC50 (hERG potassium channels): > 10000 nM
